Measured values reported in publication PMC3693115 (Evidence-based Complementary and Alternative Medicine : eCAM, 2013).

Legend:
[1] = DPPH microplate assay (radical scavenging activity); settings: for Antioxidant IC50 (radical scavenging activity) / Antioxidant % inhibition (at 100 µg/mL): mean ± SEM (n = 3)
Method: The antioxidant capacity was estimated in terms of radical scavenging activity according to a modified version of Brand-Williams method. Briefly, 100 μL of tested compounds at least 5 concentrations (dissolved in MeOH) was thoroughly mixed with 100 μL of freshly prepared DPPH solution (3 × 10^−5 M dissolved in MeOH). The reaction mixture was incubated for 30 min, then, the absorbance was read at 517 nm. Each assay was done in triplicate. IC50 value was determined by a linear regression analysis between the inhibition percentages against the concentration of tested compounds by using the Excel program.

[2] = molecular target: T1, AChE (purified enzyme from eel (Electrophorus electricus) type VI-s) (Electrophorus electricus, UniProt O42275); assay: biochemical; settings: mean ± SEM (n = 3); for inhibition at 100 µg/mL: read-out: Anticholinesterase (using purified enzyme from E. electricus) % inhibition (at 100 µg/mL)
T1 construct: a purified enzyme from eel (Electrophorus electricus) type VI-s; purchased Sigma (St. Louis, MO, USA); host or cells: purified from electric eel (natural source)
T1 sequence (O42275 24-633): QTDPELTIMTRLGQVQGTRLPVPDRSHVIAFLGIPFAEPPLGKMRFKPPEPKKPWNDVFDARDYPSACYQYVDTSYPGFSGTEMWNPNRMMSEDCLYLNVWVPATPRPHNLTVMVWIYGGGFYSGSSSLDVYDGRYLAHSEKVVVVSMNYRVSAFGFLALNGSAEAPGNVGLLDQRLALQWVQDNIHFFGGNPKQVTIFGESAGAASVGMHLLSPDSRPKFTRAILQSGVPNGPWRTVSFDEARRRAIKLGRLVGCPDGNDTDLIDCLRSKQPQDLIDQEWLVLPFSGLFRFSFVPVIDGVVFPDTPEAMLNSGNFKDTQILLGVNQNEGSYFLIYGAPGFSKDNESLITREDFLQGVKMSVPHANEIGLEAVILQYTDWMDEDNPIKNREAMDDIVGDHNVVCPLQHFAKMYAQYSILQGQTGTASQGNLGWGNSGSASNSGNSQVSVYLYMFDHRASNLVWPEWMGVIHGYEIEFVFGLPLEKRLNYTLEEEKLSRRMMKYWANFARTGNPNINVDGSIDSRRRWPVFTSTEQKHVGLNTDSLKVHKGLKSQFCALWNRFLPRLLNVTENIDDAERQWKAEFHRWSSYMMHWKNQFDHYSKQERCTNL
Method: Ellman's colorimetric method and modified method using 96-well microplates were used. Briefly, […], the product of hydrolysis reaction of ACh by cholinesterase, will react with DTNB to give 2-nitro-5-thiobenzoate (NTB^−), which ionizes to the NTB^2- dianion (in water at pH 8). This NTB^2- ion appears as yellow, which is quantified by measuring the absorbance of visible light at 405 nm. Briefly, tested compound was prepared in buffer a containing 50% MeOH. In a 96-well microtiter plate, 25 μL of tested sample was added to 200 μL reaction medium that consisted of 50 μL of buffer (50 mM TrisHCl pH 8.0) containing 0.1% BSA, 125 μL of 3 mM DTNB in buffer containing 0.1 M NaCl, and 0.02 M MgCl2·2H2O and 25 μL of 15 mM ATCI in deionized water. These contents were mixed and preincubated for 5 min at 37°C. The plate was pre-read at 405 nm using a microplate reader (TECAN M200, Switzerland). Thereafter, the reaction was initiated by the addition of 25 μL of AChE (0.22 U/mL). After 20 min incubation at 37°C, absorbance was measured again within 4–7 min. The reaction control consisted of reaction medium (200 μL), 25 μL of enzyme, and 25 μL of 50% MeOH in buffer. Two blanks were also carried out (with and without sample), and MeOH was used as the solvent control. […] Each assay was done in triplicate.

[3] = molecular target: cellular AChE of SK-N-SH cells (Homo sapiens, UniProt P22303); assay: cell-based; design: host or cells: SK-N-SH human neuroblastoma cells; settings: for IC50: mean ± SEM (n = 3), read-out: Anticholinesterase (using neuroblastoma cell) IC50 (converted); for inhibition at 100 µg/mL: read-out: Anticholinesterase (using neuroblastoma cell) % inhibition (at 100 µg/mL), 100 µg/mL, mean ± SEM (n = 3)
Sequence of cellular AChE of SK-N-SH cells (P22303 32-614): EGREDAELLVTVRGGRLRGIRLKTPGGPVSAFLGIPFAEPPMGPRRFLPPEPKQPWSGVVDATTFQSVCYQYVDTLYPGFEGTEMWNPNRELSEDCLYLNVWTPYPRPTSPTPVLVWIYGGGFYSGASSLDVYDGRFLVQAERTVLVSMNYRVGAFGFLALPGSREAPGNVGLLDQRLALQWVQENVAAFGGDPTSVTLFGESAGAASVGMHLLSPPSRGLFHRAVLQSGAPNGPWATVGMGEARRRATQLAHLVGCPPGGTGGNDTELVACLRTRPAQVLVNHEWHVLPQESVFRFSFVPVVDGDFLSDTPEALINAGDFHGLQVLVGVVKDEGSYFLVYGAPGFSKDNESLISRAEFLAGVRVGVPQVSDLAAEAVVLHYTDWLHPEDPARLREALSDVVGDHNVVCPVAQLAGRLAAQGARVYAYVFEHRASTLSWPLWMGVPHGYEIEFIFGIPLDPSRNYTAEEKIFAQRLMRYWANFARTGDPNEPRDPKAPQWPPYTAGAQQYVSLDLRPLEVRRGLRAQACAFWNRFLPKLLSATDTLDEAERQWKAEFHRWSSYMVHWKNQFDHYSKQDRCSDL
Method: The human neuroblastoma cell line SK-N-SH was purchased from the American Type Culture Collection (Manassas, VA, USA). The SK-N-SH cells were cultured in minimum essential medium from Gibco (California, USA), supplemented with 10% heat inactivated FBS, 2% supplementary amino acid solution, and 1% Glutamax (Gibco, California, USA), 1% penicillin/streptomycin. Incubation was carried out at 37°C in a humidified atmosphere of 5% CO2-95% […] atmosphere. Cells were seeded into 96-well microplates (Nunc, Roskilde, Denmark) at a density of 1 × 10^5 cells/mL (100 μL in each well). Experiments were carried out after 24 h of seeding.
One of the important neuronal properties of SK-N-SH cells is the synthesis of neurotransmitter enzymes. The inhibition activity of samples on this cell line was investigated by the modified Ellman's colorimetric method. The condition was slightly modified to enable the cellular enzyme to work properly. Briefly, 25 μL of sample dissolved in buffer containing 50% methanol, 100 μL of 3 mM DTNB in buffer containing 0.1 M NaCl and 0.02 M MgCl2·2H2O, and 25 μL of 15 mM ATCI in deionized water were added to the well containing 100 μL of the cells. The absorbance at 405 nm was measured by a microplate reader (TECAN M200, Switzerland). All assays were done in triplicate.

[4] = in vitro; assay type: cell-based; settings: mouse
Method: The exponentially grown cultures indicated the cells density by trypan blue exclusion assay. Then, neuronal differentiation was induced by seeding 2 × 10^6 cells/mL cell in a 100 mm bacteriological grade culture dish containing 10 mL α-MEM supplemented with 5% FBS, 1% antibiotics-antimycotic solution, and 0.5 μM RA. […] After 4 days of RA treatment, aggregates were dissociated with trypsin, washed, resuspended on poly-L-lysine-precoated 96-well plates (plates were previously coated with 50 μg/mL poly-L-lysine dissolved in PBS for overnight and sterilized under UV light for 30 min) at a cell density of 7 × 10^4 cells/mL (150 μL/well) in α-MEM supplemented with 10% FBS and 1% antibiotics-antimycotic solution, and incubated for 24 h. Ara-C (10 μM) was added at day one after plating to inhibit the proliferation of nonneuronal cells. […]
The procedure was carried out on P19-derived neurons cultured in a 96-well plate [29]. […] The data were expressed as the mean ± SEM (n = 3), with the medium as a control representing 100% cell viability.

[5] = tested on: P19-derived neurons; assay: Neuritogenic assay (neurite number and length); assay type: cell-based, Murine; settings: 1 nM, 24 h, 30 neurons measured
Method: Murine P19 embryonic carcinoma cells were purchased from American Type Culture Collection (ATCC), USA. P19 cells were cultured as described by Mcburney in a slightly modification. In brief, the undifferentiated P19 cells were cultured as monolayers in α-MEM with 7.5% NCS, 2.5% FBS, and 1% antibiotics-antimycotic solution in a 25-cm^2 tissue culture flask, incubated at 37°C in a humidified atmosphere of 5% CO2. Cells in monolayer cultures were maintained in exponential growth phase by subculturing every 2 days until use.
The exponentially grown cultures indicated the cells density by trypan blue exclusion assay. Then, neuronal differentiation was induced by seeding 2 × 10^6 cells/mL cell in a 100 mm bacteriological grade culture dish containing 10 mL α-MEM supplemented with 5% FBS, 1% antibiotics-antimycotic solution, and 0.5 μM RA. […]
The assay was carried out with P19-derived neurons cultured in a poly-L-lysine-precoated 6-well plate. […] Average length and number of neurites of 30 neurons from the assay were measured. […] The data were expressed as the mean ± SEM from three independent experiments.

[6] = tested on: P19-derived neurons; assay: Neuroprotective activity against oxidative stress induced by serum deprivation (XTT); assay type: cell-based, Murine; settings: 1 nM, 24 h
Method: Murine P19 embryonic carcinoma cells were purchased from American Type Culture Collection (ATCC), USA. P19 cells were cultured as described by Mcburney [24, 25] in a slightly modification [26, 27]. In brief, the undifferentiated P19 cells were cultured as monolayers in α-MEM with 7.5% NCS, 2.5% FBS, and 1% antibiotics-antimycotic solution in a 25-cm^2 tissue culture flask, incubated at 37°C in a humidified atmosphere of 5% CO2. Cells in monolayer cultures were maintained in exponential growth phase by subculturing every 2 days until use.
The blank control was cultured in α-MEM supplemented with 10% FBS and 10 μM Ara-C. The cell survival ability was measured using the XTT method.

Row | Compound | Antioxidant IC50 (radical scavenging activity) [1] | Antioxidant % inhibition (at 100 µg/mL) [1] | inhibition at 100 µg/mL [2] | IC50 [3] | inhibition at 100 µg/mL [3] | other results
1 | O=C1O[C@H]([C@@H](O)CO)C(O)=C1O [Ascorbic acid, reference compound] | 10.52 ± 0.48 µg/mL |  |  |  |  | 
2 | O=C(O)c1cc(O)c(O)c(O)c1 [Gallic acid] | 4.83 ± 0.02 µg/mL | 94.76 ± 0.51% | 73.64 ± 0.06% | 16.4 µM | 90.7 ± 2.66% | IC50 ([2]; read-out: Anticholinesterase (using purified enzyme from E. electricus) IC50 (converted)): 74.8 µM
3 | O=c1c(O)c(-c2ccc(O)c(O)c2)oc2cc(O)cc(O)c12 [Quercetin, 3,3′,4′,5,7-pentahydroxyflavone] | 3.18 ± 0.07 µg/mL | 92.61 ± 0.99% | 80.9 ± 2.52% | 121 µM | 82 ± 3.34% | IC50 ([1]; converted to molar, read-out: Antioxidant activity IC50 in micromolar range): 9.4 µM; IC50 at 18 h [4]: > 10 µM; viability at 24 h, 0.001 µM ([4]; 1 nM, 24 h treatment, relative to control (100%), read-out: % cell viability of cultured neurons): > 100%; Neurite length [5]: 139.00 ± 108.80 μm; Cell survival in serum-supplemented culture ([6]; compared to the control (P19SM)): 128.01%; Cell survival in serum-deprived culture ([6]; serum-free α-MEM, serum deprivation alone 31.16%): 88.29%
4 | Cc1c(C)c2c(c(C)c1O)CCC(C)(C(=O)O)O2 (centres unmarked) [Trolox, reference compound] | 12.54 ± 0.89 µg/mL |  |  |  |  | 
5 | COC1=C2C[C@@H](C)C[C@H](OC)[C@H](O)[C@@H](C)/C=C(\C)[C@H](OC(N)=O)[C@@H](OC)/C=C\C=C(/C)C(=O)NC(=CC1=O)C2=O [geldanamycin, Geldanamycin, reference compound] |  |  |  |  |  | Amount of neurites [5]: 2.03 ± 1.30
